In assay [1] the target is NADH:ubiquinone oxidoreductase (Complex I) (Bos taurus, UniProt P03887+P17694+P42026). The assay can be described thus: inhibitory potency for NADH:ubiquinone oxidoreductase activity in vitro using bovine heart electron transport particles. The format is biochemical. To be noted: for IC50: bovine heart electron transport particles. Here is the method: This primary library was screened for inhibitory potency against NADH:ubiquinone oxidoreductase activity as described below. […] As described below, a series of focused libraries were then synthesized using a combination of solid and solution phase chemistry in an attempt to evaluate particular structural sub-regions (denoted I-IV in FIG. 9) of the lead structure, thus allowing structure activity relationships to be developed.
Chain of NADH:ubiquinone oxidoreductase (Complex I) (P03887 whole entry): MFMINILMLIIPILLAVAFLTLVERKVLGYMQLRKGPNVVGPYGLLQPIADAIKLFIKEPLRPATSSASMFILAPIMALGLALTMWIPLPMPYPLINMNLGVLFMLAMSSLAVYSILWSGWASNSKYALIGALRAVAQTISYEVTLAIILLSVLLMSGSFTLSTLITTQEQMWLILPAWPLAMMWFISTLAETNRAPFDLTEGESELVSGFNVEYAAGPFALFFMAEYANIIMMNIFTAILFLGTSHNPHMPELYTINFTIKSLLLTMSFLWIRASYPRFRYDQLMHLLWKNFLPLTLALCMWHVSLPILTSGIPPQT
Chain of NADH:ubiquinone oxidoreductase (Complex I) (P42026 38-216): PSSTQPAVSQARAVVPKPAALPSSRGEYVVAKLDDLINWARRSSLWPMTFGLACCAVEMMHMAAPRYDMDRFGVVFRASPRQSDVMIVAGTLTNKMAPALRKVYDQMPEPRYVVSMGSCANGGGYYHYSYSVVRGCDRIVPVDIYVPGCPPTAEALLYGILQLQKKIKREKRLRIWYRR
Chain of NADH:ubiquinone oxidoreductase (Complex I) (P17694 34-463): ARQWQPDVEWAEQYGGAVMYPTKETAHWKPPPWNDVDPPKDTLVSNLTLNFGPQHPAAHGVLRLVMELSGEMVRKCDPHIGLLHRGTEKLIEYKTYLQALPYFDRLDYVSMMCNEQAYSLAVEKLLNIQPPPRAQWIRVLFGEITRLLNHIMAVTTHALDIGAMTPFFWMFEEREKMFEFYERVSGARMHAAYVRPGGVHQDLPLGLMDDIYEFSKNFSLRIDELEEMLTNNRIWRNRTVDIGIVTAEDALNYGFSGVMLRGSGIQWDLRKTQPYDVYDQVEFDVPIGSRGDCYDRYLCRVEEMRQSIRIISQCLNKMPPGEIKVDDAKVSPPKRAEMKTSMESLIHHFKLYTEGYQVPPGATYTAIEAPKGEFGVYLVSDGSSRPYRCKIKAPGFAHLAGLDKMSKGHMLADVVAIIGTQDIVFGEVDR
SAR optimization was carried out on each of the four regions (I-IV) of interest guided by the inhibitory potency for NADH:ubiquinone oxidoreductase activity in vitro using bovine heart electron transport particles (see Singer (Singer, T. P. (1974). In Methods of Biochemical Analysis (Glick, D. ed., Wiley New York), 22, pp. 123-175) for details).
FIG. 15 is a graphical summary of structure activity trends observed for benzopyran-based inhibitors of NADH:ubiquinone oxidoreductase. SAR optimization was carried out on each of the four regions (I-IV) of interest guided by the inhibitory potency for NADH:ubiquinone oxidoreductase activity in vitro using bovine heart electron transport particles (see Singer (Singer, T.P. (1974). In Methods of Biochemical Analysis (Glick, D. ed., Wiley New York), 22, pp. 123-175) for details).

Assay [2] deals with Complex I. Kind of assay: Complex I activity in in vitro assays (literature, Fang/Casida). The format is biochemical. To be noted: ratio of IC50 values. An excerpt: Novel lead compounds were identified through the screening of natural product-like combinatorial libraries. Separation of the constituents of this resin provided the major components rotenone (1, FIG. 2) and deguelin (7, FIG. 3) along with minor constituents, including dehydrodeguelin (8), oxadehydrodeguelin (9), lonchocarpusone (10), 4-hydroxylonchocarpene (11), 4-hydroxy-3-methoxylonchocarpene (12), stilbenes 13-15, and isoflavones 16-18 (FIG. 3) among others. […] Despite the diversity in these bridging units, all of the compounds (7-18) inhibited Complex I activity in in vitro assays (Fang, N.; Casida, J. E. J. Nat. Prod. 1999, 62, 205-210; Fang, N.; et al. Chem. Res. Toxicol. 1997, 10, 853-858). […] Given this effect, it was envisioned that screening a benzopyran-based combinatorial library wherein this “bridge” unit was varied (i.e. structure 19, FIG. 3) might lead to the identification of interesting structure activity relationships (SAR), and potentially to new lead compounds in this series.

Assay [3] concerns Complex I. The settings on record: natural products from Cubé resin; cited from earlier work.

As usually defined, the IC50 is the concentration needed to halve the response being measured. Turning to `COc1ccc(COC(=O)c2ccc3c(c2)C=CC(C)(C)O3)cc1OC` [Compound 42], the half-inhibitory concentration (IC50) in assay [1] worked out at 220 nM.
With `COc1cc(COC(=O)c2ccc3c(c2)C=CC(C)(C)O3)cc(OC)c1OC` [Compound 55], the IC50 in assay [1] was found to be 55 nM.
For the compound `COc1cc(COC(=O)c2ccc3c(c2)CCC(C)(C)O3)cc(OC)c1OC` [Compound 140], the IC50 in assay [1] came to 53 nM.
On the same count and under the same terms, the result for `COc1cc(CC(=O)c2ccc3c(c2)C=CC(C)(C)O3)cc(OC)c1OC` [Compound 158] reads 39 nM; that for `C=C(Cc1cc(OC)c(OC)c(OC)c1)c1ccc2c(c1)C=CC(C)(C)O2` [Compound 163], 19 nM.
For `COc1cc(CC(=O)c2ccc3c(c2)CCC(C)(C)O3)cc(OC)c1OC` [Compound 165], the half-inhibitory concentration (IC50) in assay [1] was found to be 24 nM. Also, in assay [1] (relative to parent/lead compound), the “inhibitory activity” value is recorded as “almost twice as active as the parent olefin”.
Take `C=C(Cc1cc(OC)c(OC)c(OC)c1)c1ccc2c(c1)CCC(C)(C)O2` [Compound 167]: the IC50 in assay [1] is 18 nM.
Take `COc1cc(CC(=C(Cl)Cl)c2ccc3c(c2)CCC(C)(C)O3)cc(OC)c1OC` [Compound 168]: in assay [1], the IC50 came to 2700 nM.
Still for that read-out and setting: the result for `COc1cc(CC(=C(F)F)c2ccc3c(c2)CCC(C)(C)O3)cc(OC)c1OC` [Compound 169] reads 48 nM; that for `COc1cc(CSc2ccc3c(c2)C=CC(C)(C)O3)cc(OC)c1OC` [Compound 178], 43 nM.
Take `COc1cc2c(cc1OC)[C@@H]1C(=O)c3ccc4c(c3O[C@@H]1CO2)C=CC(C)(C)O4` [deguelin]: the “fold more active than lonchocarpusone” value with Complex I [2] is reported as roughly 500 fold. The 50% inhibitory concentration (IC50) in the assay on Complex I [3] is 6.9 nM.
As for `COc1cc(OC)c(C2COc3c(ccc4c3C=CC(C)(C)O4)C2=O)cc1OC` (centres unmarked) [lonchocarpusone], the IC50 in the assay with Complex I [3] was 3300 nM.

Source of the values: US7410998B2, “Inhibitors of NADH:ubiquinone oxidoreductase” (The Scripps Research Institute, priority 2000, dated 2008).
